{"source": "patent US20230293526A1", "about": "“METHOD FOR TREATING CANCER WITH A REVERSE TRANSCRIPTASE INHIBITOR” (PrimeFour Therapeutics, Inc., priority 2020, published 2023)", "test_in_all_cases": "Cell proliferation Ex.3", "type_in_all_cases": "cell-based", "key": {"22RV1": {"tested_on": "22RV1", "details": "Homo sapiens", "experimental": "(§1) A dose response relationship on cell proliferation was assessed for Compound 13 on 140 tumor cell lines. […] Cells were cultured in the appropriate media. For the assays, cells were seeded in white cell culture-treated flat and clear bottom multiwell plates and incubated at 37° C. overnight before compound was added. […] on the medium, cell plates were equilibrated to room temperature for one hour, CellTiterGlo reagent (Promega) was added and luminescence was measured approximately an hour later using a luminometer. Raw data were converted into percent cell viability relative to the high and low control, which were set to 10000 and 000, respectively."}, "A204": {"tested_on": "A204", "details": "Homo sapiens", "experimental": "as §1"}, "A673": {"tested_on": "A673", "details": "Homo sapiens", "experimental": "as §1"}, "BT20": {"tested_on": "BT20", "details": "Homo sapiens, BT-20", "experimental": "as §1"}, "CAKI1": {"tested_on": "CAKI1", "details": "Homo sapiens, CAKI-1", "experimental": "as §1"}, "CLS439": {"tested_on": "CLS439", "experimental": "as §1"}, "HCT15": {"tested_on": "HCT15", "details": "Homo sapiens, HCT-15", "experimental": "as §1"}, "HEPG2": {"tested_on": "HEPG2", "details": "Homo sapiens", "experimental": "as §1"}, "HS729": {"tested_on": "HS729", "experimental": "as §1"}, "HT1080": {"tested_on": "HT1080", "details": "Homo sapiens, HT-1080", "experimental": "as §1"}, "K-562": {"tested_on": "K-562", "details": "Homo sapiens, K562", "experimental": "as §1"}, "LOVO": {"tested_on": "LOVO", "details": "Homo sapiens", "experimental": "as §1"}, "MCF7": {"tested_on": "MCF7", "details": "Homo sapiens", "experimental": "as §1"}, "MDAMB468": {"tested_on": "MDAMB468", "details": "Homo sapiens, MDA-MB-468", "experimental": "as §1"}, "MV4-11": {"tested_on": "MV4-11", "details": "Homo sapiens", "experimental": "as §1"}, "NCI-H23": {"tested_on": "NCI-H23", "details": "Homo sapiens", "experimental": "as §1"}, "NCIH358M": {"tested_on": "NCIH358M", "details": "NCI-H358M", "experimental": "as §1"}, "NCIH460": {"tested_on": "NCIH460", "details": "Homo sapiens, NCI-H460", "experimental": "as §1"}, "PANC1": {"tested_on": "PANC1", "details": "Homo sapiens, PANC-1", "experimental": "as §1"}, "SKLMS1": {"tested_on": "SKLMS1", "details": "Homo sapiens, SK-LMS-1", "experimental": "as §1"}, "SKMEL5": {"tested_on": "SKMEL5", "details": "Homo sapiens, SK-MEL-5", "experimental": "as §1"}, "SKNAS": {"tested_on": "SKNAS", "details": "Homo sapiens, SK-N-AS", "experimental": "as §1"}, "SNB75": {"tested_on": "SNB75", "details": "Homo sapiens, SNB-75", "experimental": "as §1"}, "SW620": {"tested_on": "SW620", "details": "Homo sapiens, SW-620", "experimental": "as §1"}, "T24": {"tested_on": "T24", "details": "Homo sapiens, T-24", "experimental": "as §1"}, "TE671": {"tested_on": "TE671", "details": "Homo sapiens, TE-671", "experimental": "as §1"}}, "data": [{"smiles": "C#C[C@]1(CO)O[C@@H](n2cc(F)c(N)nc2=O)C[C@@H]1O", "note": "[compound 9]", "values": [{"measurement": "IC50", "setting": "22RV1; 22Rv1, 72 h", "result": 3.8, "unit": "µM"}, {"measurement": "IC50", "setting": "22RV1; 22Rv1, 120 h", "result": 3.28, "unit": "µM"}, {"measurement": "IC50", "setting": "22RV1; 22Rv1, 168 h", "result": 3.69, "unit": "µM"}, {"measurement": "IC50", "setting": "A204; A204, 72 h", "result": "> 10", "unit": "µM"}, {"measurement": "IC50", "setting": "A204; A204, 120 h", "result": "> 10", "unit": "µM"}, {"measurement": "IC50", "setting": "A204; A204, 168 h", "result": "> 10", "unit": "µM"}, {"measurement": "IC50", "setting": "A673; A673, 72 h", "result": "> 10", "unit": "µM"}, {"measurement": "IC50", "setting": "A673; A673, 120 h", "result": "> 10", "unit": "µM"}, {"measurement": "IC50", "setting": "A673; A673, 168 h", "result": "> 10", "unit": "µM"}, {"measurement": "IC50", "setting": "BT20; BT20, 72 h", "result": "> 10", "unit": "µM"}, {"measurement": "IC50", "setting": "BT20; BT20, 120 h", "result": "> 10", "unit": "µM"}, {"measurement": "IC50", "setting": "BT20; BT20, 168 h", "result": "> 10", "unit": "µM"}, {"measurement": "IC50", "setting": "CAKI1; CAKI1, 72 h", "result": "> 10", "unit": "µM"}, {"measurement": "IC50", "setting": "CAKI1; CAKI1, 120 h", "result": "> 10", "unit": "µM"}, {"measurement": "IC50", "setting": "CAKI1; CAKI1, 168 h", "result": "> 10", "unit": "µM"}, {"measurement": "IC50", "setting": "CLS439; CLS439, 72 h", "result": "> 10", "unit": "µM"}, {"measurement": "IC50", "setting": "CLS439; CLS439, 120 h", "result": "> 10", "unit": "µM"}, {"measurement": "IC50", "setting": "CLS439; CLS439, 168 h", "result": "> 10", "unit": "µM"}, {"measurement": "IC50", "setting": "HCT15; HCT15, 72 h", "result": "> 10", "unit": "µM"}, {"measurement": "IC50", "setting": "HCT15; HCT15, 120 h", "result": "> 10", "unit": "µM"}, {"measurement": "IC50", "setting": "HCT15; HCT15, 168 h", "result": "> 10", "unit": "µM"}, {"measurement": "IC50", "setting": "HEPG2; HepG2, 72 h", "result": "> 10", "unit": "µM"}, {"measurement": "IC50", "setting": "HEPG2; HepG2, 120 h", "result": "> 10", "unit": "µM"}, {"measurement": "IC50", "setting": "HEPG2; HepG2, 168 h", "result": "> 10", "unit": "µM"}, {"measurement": "IC50", "setting": "HS729; HS729, 72 h", "result": "> 10", "unit": "µM"}, {"measurement": "IC50", "setting": "HS729; HS729, 120 h", "result": "> 10", "unit": "µM"}, {"measurement": "IC50", "setting": "HS729; HS729, 168 h", "result": "> 10", "unit": "µM"}, {"measurement": "IC50", "setting": "HT1080; HT1080, 72 h", "result": "> 10", "unit": "µM"}, {"measurement": "IC50", "setting": "HT1080; HT1080, 120 h", "result": "> 10", "unit": "µM"}, {"measurement": "IC50", "setting": "HT1080; HT1080, 168 h", "result": "> 10", "unit": "µM"}, {"measurement": "IC50", "setting": "K-562; K-562, 72 h", "result": "> 10", "unit": "µM"}, {"measurement": "IC50", "setting": "K-562; K-562, 120 h", "result": "> 10", "unit": "µM"}, {"measurement": "IC50", "setting": "K-562; K-562, 168 h", "result": "> 10", "unit": "µM"}, {"measurement": "IC50", "setting": "LOVO; 72 h", "result": "> 10", "unit": "µM"}, {"measurement": "IC50", "setting": "LOVO; 120 h", "result": 3.28, "unit": "µM"}, {"measurement": "IC50", "setting": "LOVO; 168 h", "result": 2.06, "unit": "µM"}, {"measurement": "IC50", "setting": "MCF7; MCF7, 72 h", "result": "> 10", "unit": "µM"}, {"measurement": "IC50", "setting": "MCF7; MCF7, 120 h", "result": "> 10", "unit": "µM"}, {"measurement": "IC50", "setting": "MCF7; MCF7, 168 h", "result": "> 10", "unit": "µM"}, {"measurement": "IC50", "setting": "MDAMB468; MDAMB468, 72 h", "result": "> 10", "unit": "µM"}, {"measurement": "IC50", "setting": "MDAMB468; MDAMB468, 120 h", "result": "> 10", "unit": "µM"}, {"measurement": "IC50", "setting": "MDAMB468; MDAMB468, 168 h", "result": "> 10", "unit": "µM"}, {"measurement": "IC50", "setting": "MV4-11; MV4-11, 72 h", "result": 2.48, "unit": "µM"}, {"measurement": "IC50", "setting": "MV4-11; MV4-11, 120 h", "result": 0.251, "unit": "µM"}, {"measurement": "IC50", "setting": "MV4-11; MV4-11, 168 h", "result": 1.72, "unit": "µM"}, {"measurement": "IC50", "setting": "NCI-H23; NCI-H23, 72 h", "result": "> 10", "unit": "µM"}, {"measurement": "IC50", "setting": "NCI-H23; NCI-H23, 120 h", "result": "> 10", "unit": "µM"}, {"measurement": "IC50", "setting": "NCI-H23; NCI-H23, 168 h", "result": "> 10", "unit": "µM"}, {"measurement": "IC50", "setting": "NCIH358M; 72 h", "result": "> 10", "unit": "µM"}, {"measurement": "IC50", "setting": "NCIH358M; 120 h", "result": "> 10", "unit": "µM"}, {"measurement": "IC50", "setting": "NCIH358M; 168 h", "result": 0.67, "unit": "µM"}, {"measurement": "IC50", "setting": "NCIH460; NCIH460, 72 h", "result": "> 10", "unit": "µM"}, {"measurement": "IC50", "setting": "NCIH460; NCIH460, 120 h", "result": "> 10", "unit": "µM"}, {"measurement": "IC50", "setting": "NCIH460; NCIH460, 168 h", "result": "> 10", "unit": "µM"}, {"measurement": "IC50", "setting": "PANC1; PANC1, 72 h", "result": "> 10", "unit": "µM"}, {"measurement": "IC50", "setting": "PANC1; PANC1, 120 h", "result": "> 10", "unit": "µM"}, {"measurement": "IC50", "setting": "PANC1; PANC1, 168 h", "result": "> 10", "unit": "µM"}, {"measurement": "IC50", "setting": "SKLMS1; SKLMS1, 72 h", "result": "> 10", "unit": "µM"}, {"measurement": "IC50", "setting": "SKLMS1; SKLMS1, 120 h", "result": "> 10", "unit": "µM"}, {"measurement": "IC50", "setting": "SKLMS1; SKLMS1, 168 h", "result": "> 10", "unit": "µM"}, {"measurement": "IC50", "setting": "SKMEL5; SKMEL5, 72 h", "result": "> 10", "unit": "µM"}, {"measurement": "IC50", "setting": "SKMEL5; SKMEL5, 120 h", "result": "> 10", "unit": "µM"}, {"measurement": "IC50", "setting": "SKMEL5; SKMEL5, 168 h", "result": "> 10", "unit": "µM"}, {"measurement": "IC50", "setting": "SKNAS; 72 h", "result": "> 10", "unit": "µM"}, {"measurement": "IC50", "setting": "SKNAS; 120 h", "result": "> 10", "unit": "µM"}, {"measurement": "IC50", "setting": "SKNAS; 168 h", "result": "> 10", "unit": "µM"}, {"measurement": "IC50", "setting": "SNB75; SNB75, 72 h", "result": "> 10", "unit": "µM"}, {"measurement": "IC50", "setting": "SNB75; SNB75, 120 h", "result": "> 10", "unit": "µM"}, {"measurement": "IC50", "setting": "SNB75; SNB75, 168 h", "result": "> 10", "unit": "µM"}, {"measurement": "IC50", "setting": "SW620; SW620, 72 h", "result": "> 10", "unit": "µM"}, {"measurement": "IC50", "setting": "SW620; SW620, 120 h", "result": "> 10", "unit": "µM"}, {"measurement": "IC50", "setting": "SW620; SW620, 168 h", "result": "> 10", "unit": "µM"}, {"measurement": "IC50", "setting": "T24; T24, 72 h", "result": "> 10", "unit": "µM"}, {"measurement": "IC50", "setting": "T24; T24, 120 h", "result": "> 10", "unit": "µM"}, {"measurement": "IC50", "setting": "T24; T24, 168 h", "result": "> 10", "unit": "µM"}, {"measurement": "IC50", "setting": "TE671; TE671, 72 h", "result": "> 10", "unit": "µM"}, {"measurement": "IC50", "setting": "TE671; TE671, 120 h", "result": "> 10", "unit": "µM"}, {"measurement": "IC50", "setting": "TE671; TE671, 168 h", "result": "> 10", "unit": "µM"}]}]}
